As a reminder, the melting point is the temperature, or range, at which the solid turns liquid. Broadly, the Ki is a measure of affinity in units of concentration, obtained from inhibition or displacement. One may read the EC50 as the concentration that produces a half-maximal response. Higher therefore signals a less potent agent.

These results are taken from patent publication US7696246B2 (Ligand Pharmaceuticals Incorporated, priority 1999, dated 2010).

Where two headings read alike, the source gives them in different places.

Data set [1] has as its target T1, human AR (Homo sapiens, UniProt P10275).
T1 sequence (P10275 1-920): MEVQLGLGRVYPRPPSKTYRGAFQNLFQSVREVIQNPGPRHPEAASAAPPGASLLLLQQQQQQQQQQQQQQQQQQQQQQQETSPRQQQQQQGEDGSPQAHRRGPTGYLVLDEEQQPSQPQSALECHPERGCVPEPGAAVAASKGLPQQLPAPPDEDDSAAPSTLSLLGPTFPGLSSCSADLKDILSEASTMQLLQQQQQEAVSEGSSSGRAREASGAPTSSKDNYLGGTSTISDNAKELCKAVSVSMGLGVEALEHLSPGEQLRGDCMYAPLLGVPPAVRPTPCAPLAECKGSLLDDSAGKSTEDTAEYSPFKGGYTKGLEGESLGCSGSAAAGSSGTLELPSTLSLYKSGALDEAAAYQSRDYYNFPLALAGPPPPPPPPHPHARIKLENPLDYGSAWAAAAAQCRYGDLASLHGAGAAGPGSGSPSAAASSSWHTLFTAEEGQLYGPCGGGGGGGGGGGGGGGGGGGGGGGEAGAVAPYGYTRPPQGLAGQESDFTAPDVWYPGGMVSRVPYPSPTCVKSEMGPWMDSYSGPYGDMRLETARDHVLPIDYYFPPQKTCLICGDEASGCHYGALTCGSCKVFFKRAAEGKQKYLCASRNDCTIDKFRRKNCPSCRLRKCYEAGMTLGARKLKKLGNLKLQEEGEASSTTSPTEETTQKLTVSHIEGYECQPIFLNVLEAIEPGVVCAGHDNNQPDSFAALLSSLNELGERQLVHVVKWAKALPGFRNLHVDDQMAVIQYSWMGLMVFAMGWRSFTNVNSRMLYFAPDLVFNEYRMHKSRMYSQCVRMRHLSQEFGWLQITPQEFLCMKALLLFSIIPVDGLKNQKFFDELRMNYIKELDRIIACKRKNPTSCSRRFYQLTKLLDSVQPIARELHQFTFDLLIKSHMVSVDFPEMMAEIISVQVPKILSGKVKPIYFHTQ
Description: AR whole cell competitive binding assay (COS-1 cells, 3H-DHT). As to conditions: 1 nM 3H-DHT, Cheng-Prusoff.

In data set [2] the target is T1, human AR. Description: Co-transfection assay, AR antagonist activity (CV-1 cells, in presence of DHT). In kind it is cell-based. As to conditions: for AR Antagonist CV-1 Cells Efficacy (%): percent maximal inhibition, DHT at its EC50; for IC50: read-out: AR Antagonist CV-1 Cells Potency.
Data set [3] concerns the target T1, human AR. Description: Co-transfection assay, AR agonist activity (CV-1 cells, MTV-LUC reporter). In kind it is cell-based. Conditions: CV-1 cells; agonist potency EC50.
Data set [4] has as its target T2, PR (Homo sapiens, UniProt P06401).
T2 sequence (P06401 1-933): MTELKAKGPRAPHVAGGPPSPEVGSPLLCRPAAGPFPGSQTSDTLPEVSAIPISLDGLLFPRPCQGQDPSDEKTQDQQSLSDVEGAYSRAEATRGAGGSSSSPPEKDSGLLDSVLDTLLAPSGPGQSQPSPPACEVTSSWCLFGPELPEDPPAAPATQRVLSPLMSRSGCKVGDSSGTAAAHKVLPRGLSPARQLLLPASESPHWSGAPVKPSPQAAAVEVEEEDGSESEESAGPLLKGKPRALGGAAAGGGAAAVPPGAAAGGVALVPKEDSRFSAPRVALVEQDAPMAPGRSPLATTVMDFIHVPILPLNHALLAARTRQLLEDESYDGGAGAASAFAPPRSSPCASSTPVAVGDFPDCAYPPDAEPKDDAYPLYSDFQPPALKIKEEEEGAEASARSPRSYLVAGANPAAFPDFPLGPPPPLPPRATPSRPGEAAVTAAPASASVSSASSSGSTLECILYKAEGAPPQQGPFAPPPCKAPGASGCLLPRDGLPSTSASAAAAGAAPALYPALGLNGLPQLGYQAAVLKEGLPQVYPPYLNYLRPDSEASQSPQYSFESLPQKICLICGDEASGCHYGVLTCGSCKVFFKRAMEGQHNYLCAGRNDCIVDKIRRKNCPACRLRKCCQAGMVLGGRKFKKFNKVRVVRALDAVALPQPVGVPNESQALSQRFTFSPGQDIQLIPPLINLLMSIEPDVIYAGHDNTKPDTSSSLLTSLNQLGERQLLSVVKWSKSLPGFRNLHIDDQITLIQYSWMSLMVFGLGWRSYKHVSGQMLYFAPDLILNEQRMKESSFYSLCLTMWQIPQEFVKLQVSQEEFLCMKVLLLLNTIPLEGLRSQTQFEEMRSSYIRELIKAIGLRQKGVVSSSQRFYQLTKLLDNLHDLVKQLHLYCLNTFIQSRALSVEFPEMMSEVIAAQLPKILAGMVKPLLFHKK
Description: PR competitive binding assay. As to conditions: Cheng-Prusoff.
Description: After correcting for non-specific binding, IC50 values were determined. […] The IC50 value was determined graphically from a log-logit plot of the data. The Ki values were determined by application of the Cheng-Prusoff equivuation to the IC50 values, the labeled ligand concentration and the Kd of the labeled ligand.

Data set [5] concerns the target T2, PR. Nature of the data set: Co-transfection assay, PR agonist activity (CV-1 cells). It counts as cell-based. Also on record: expressed in transfected cells; host or cells: CV-1 cells. As to conditions: for EC50: agonist potency EC50; for PR Agonist CV-1 Cells Efficacy (%): percent maximal response relative to reference agonist progesterone.
Data set [6] deals with T2, PR. Nature of the data set: Co-transfection assay, PR antagonist activity (CV-1 cells, in presence of progesterone). In kind it is cell-based. Also on record: expressed in transfected cells; host or cells: CV-1 cells. As to conditions: for PR Antagonist CV-1 Cells Efficacy (%): percent maximal inhibition, progesterone at its EC50.

The compound `CC(C)(O)C(=O)Nc1ccc2c(C(F)(F)F)cc(=O)[nH]c2c1` yielded a melting point of 289 to 291 °C.
On to `CC1(C)OC(=S)Nc2ccc(C3=CCCCC3)cc21` [Compound 689, 6-(1-Cyclohexenyl)-1,4-dihydro-4,4-dimethyl-1,3-benzo[d]oxazin-2-thione], for which the Ki on human AR [1] came to 132 nM; at PR [4], 23 nM. Moreover, on human AR [2], the “AR Antagonist CV-1 Cells Efficacy (%)” value was found to be 89%. For the same compound, the figures for the IC50 at human AR [2] and on PR [6] (read-out: PR Antagonist CV-1 Cells Potency) were 40 nM and 35 nM, respectively. The EC50 at human AR [3] is more than 10000 nM; on PR [5], 2700 nM. Moreover, the “PR Agonist CV-1 Cells Efficacy (%)” value at PR [5] was 105%. The “PR Antagonist CV-1 Cells Efficacy (%)” value on PR [6] is recorded as 47%.
Turning to `O=c1cc(C(F)(F)F)c2cc(-c3cccc(F)c3F)ccc2[nH]1` [Compound 725, 6-(2,3-Difluoro)phenyl-4-trifluoromethyl-2(1H)-quinolinone], the Ki was more than 1000 nM at human AR [1] and 400 nM at PR [4]. Further, the “AR Antagonist CV-1 Cells Efficacy (%)” value on human AR [2] was determined as 87%. Besides, the IC50 at human AR [2] stood at 79 nM; at PR [6] it was 149 nM. Moreover, the EC50 at human AR [3] and on PR [5] was more than 10000 nM throughout. Also, the “PR Agonist CV-1 Cells Efficacy (%)” value at PR [5] was “na (na = not active (i.e. efficacy of <20 and potency of >10,000))”. In addition, at PR [6], the “PR Antagonist CV-1 Cells Efficacy (%)” value worked out at 92%.
